From ChEMBL document CHEMBL1201862, “PubChem BioAssay data set” (2004)
Active and inactive are the calls of the source.

Legend:
[1] = inhibitors of intracellular T. cruzi replication, confirmation, NIH3T3 host cells, beta-gal luminescence (AID 2044); format: functional, cell-based;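 further: intracellular parasites grown in NIH/3T3 mouse fibroblasts as host cells; luminescent beta-galactosidase reporter signal from transgenic T. cruzi replicating inside host cells; inhibitors lower the luminescence signal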
[2] = target: Voltage-gated inwardly rectifying potassium channel KCNH2 (Homo sapiens, UniProt Q12809); experiment: hERG protection from proarrhythmic block, potency, dose response, cell-based, thallium flux (AID 2121); format: ADME
[3] = mammalian cell cytotoxicity, dose response, cytotoxicity control, plate reader, cherry-pick samples (AID 504397); format: functional, cell-based
HEK293 = experiment: inhibitors of LMP1-driven NF-kB reporter, dose response, cell-based, HEK293, luciferase, cherry-pick (AID 588343); format: functional; conditions: Homo sapiens
[4] = Luminescence Cell-Based Dose Confirmation HTS to Identify Activators of 5'UTR Stem-Loop Driven Alpha-Synuclein mRNA Translation in H4 Neuroglioblastoma Cells. [Related pubchem assays: 1829 (Project Summary), 1814 (Primary HTS)]; format: functional
[5] = Luminescence Cell-Based Dose Response HTS to Identify Activators of Luciferase Translation or Activity in H4 […] Cells. [Related pubchem assays: 1829 (Project Summary), 1814 (Primary HTS)]; format: functional
H4 = experiment: Luminescence Cell-Based Dose Response HTS to Identify Activators of 5'UTR Stem-Loop Driven Prion Protein mRNA Translation in H4 Neuroglioblastoma Cells. [Related pubchem assays: 1829 (Project Summary), 1814 (Primary HTS)]; format: functional; conditions: Homo sapiens
[6] = cytotoxicity toward NIH3T3 fibroblasts, dose response, counter-screen, cell-based, ATP luminescence, mouse fibroblasts (AID 2010); format: functional;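 further: cells exposed to compound for about 90 hours before reading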
[7] = target: DNA damage-inducible transcript 3 protein (Mus musculus, UniProt P35639); format: functional, Cricetulus griseus
[8] = target: T1, Microphthalmia-associated transcription factor (Homo sapiens, UniProt O75030); experiment: TRPM1 promoter luciferase signal decrease, dose response, MITF inhibitor project, cell-based, SK-MEL-5, cherry-picked, set 3 (AID 493073); format: functional
T1 sequence (O75030 whole entry): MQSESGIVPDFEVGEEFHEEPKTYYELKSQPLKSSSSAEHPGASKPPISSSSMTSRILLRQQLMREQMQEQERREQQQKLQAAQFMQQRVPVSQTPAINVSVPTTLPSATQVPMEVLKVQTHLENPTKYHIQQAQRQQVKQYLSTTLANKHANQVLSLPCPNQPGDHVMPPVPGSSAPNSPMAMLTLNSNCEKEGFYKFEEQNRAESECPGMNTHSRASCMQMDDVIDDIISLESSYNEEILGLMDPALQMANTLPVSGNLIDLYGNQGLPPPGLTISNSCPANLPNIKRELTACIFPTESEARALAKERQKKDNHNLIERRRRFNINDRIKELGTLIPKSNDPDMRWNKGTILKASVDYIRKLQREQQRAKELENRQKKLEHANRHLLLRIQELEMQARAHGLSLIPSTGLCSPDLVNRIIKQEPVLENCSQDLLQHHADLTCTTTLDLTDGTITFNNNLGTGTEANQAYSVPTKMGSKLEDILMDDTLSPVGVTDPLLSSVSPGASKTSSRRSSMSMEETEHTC

A-375 = experiment: MITF: Counter assay: A375 proliferation Measured in Cell-Based System Using Plate Reader - 2084-03_Inhibitor_Dose_DryPowder_Activity. [Related pubchem assays (depositor defined):AID488944]; format: functional; conditions: Homo sapiens
[9] = Shn3 3'UTR reporter inhibitors, dose response, cell-based, Clone20 osteoblasts, firefly luciferase, cherry-picked (AID 624132); format: functional;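 further: firefly luciferase luminescence from reporter carrying the Shn3 3'UTR in osteoblasts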
[10] = HepG2 cell cytotoxicity, dose response, cytotoxicity control for Shn3 inhibitor project, CellTiter-Glo, cherry-picked (AID 624134); format: functional, cell-based
[11] = control 3'UTR Renilla luciferase suppression, dose response, counter-screen for Shn3 inhibitor project, cell-based, Clone20-Shn3RL, cherry-picked (AID 624133); format: functional
[12] = target: T2, G-protein coupled receptor 55 (Homo sapiens, UniProt Q9Y2T6); experiment: GPR55 agonists via beta-arrestin recruitment, primary screen, imaging, U2OS cells, beta-arrestin-GFP redistribution (AID 1961); format: functional
Cannabinoid receptor 2 [13] = target: T3, Cannabinoid receptor 2 (Homo sapiens, UniProt P34972); experiment: SAR analysis of antagonists of the Cannabinoid Receptor 2 using an Image-Based Assay - Set 2. [Related pubchem assays (depositor defined):AID1961, AID1965]; format: functional
Cannabinoid receptor 2 [14] = target: T3, Cannabinoid receptor 2; experiment: SAR analysis of agonists of the Cannabinoid Receptor 2 using an Image-Based Assay - Set 2. [Related pubchem assays (depositor defined):AID1961, AID1965]; format: functional
[15] = target: T2, G-protein coupled receptor 55; experiment: SAR analysis of selective Agonists of GPR55 using an Image-Based Assay. [Related pubchem assays (depositor defined):AID1961, AID1965]; format: functional
Cannabinoid receptor 1 = Cannabinoid receptor 1 (Homo sapiens, UniProt P21554); experiment: SAR analysis of antagonists of the Cannabinoid Receptor 1 using an Image-Based Assay. [Related pubchem assays (depositor defined):AID1961, AID1965]; format: functional
Sequence of Cannabinoid receptor 1 (P21554 whole entry): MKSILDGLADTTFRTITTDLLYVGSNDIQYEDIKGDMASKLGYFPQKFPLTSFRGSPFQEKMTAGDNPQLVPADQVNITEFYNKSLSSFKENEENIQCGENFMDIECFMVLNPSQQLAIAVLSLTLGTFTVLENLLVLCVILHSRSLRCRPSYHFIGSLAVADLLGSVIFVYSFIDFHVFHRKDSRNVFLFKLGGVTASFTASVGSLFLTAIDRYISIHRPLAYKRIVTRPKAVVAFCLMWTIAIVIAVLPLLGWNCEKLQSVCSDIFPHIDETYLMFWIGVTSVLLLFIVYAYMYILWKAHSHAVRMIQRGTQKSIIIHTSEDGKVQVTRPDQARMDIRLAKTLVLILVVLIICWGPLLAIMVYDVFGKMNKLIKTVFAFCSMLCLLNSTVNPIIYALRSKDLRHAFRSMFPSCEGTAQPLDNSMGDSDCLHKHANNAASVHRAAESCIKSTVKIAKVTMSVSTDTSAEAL

T3 sequence (P34972 whole entry): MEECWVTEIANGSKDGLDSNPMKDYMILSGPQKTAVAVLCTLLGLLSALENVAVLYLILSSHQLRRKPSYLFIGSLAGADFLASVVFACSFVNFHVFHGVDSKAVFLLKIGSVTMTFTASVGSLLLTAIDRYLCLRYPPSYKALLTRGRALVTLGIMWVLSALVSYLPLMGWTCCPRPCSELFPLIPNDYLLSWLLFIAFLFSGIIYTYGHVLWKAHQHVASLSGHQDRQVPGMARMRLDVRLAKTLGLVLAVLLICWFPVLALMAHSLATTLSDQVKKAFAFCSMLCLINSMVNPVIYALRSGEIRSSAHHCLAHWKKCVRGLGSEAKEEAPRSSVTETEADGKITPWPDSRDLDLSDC
T2 sequence (Q9Y2T6 whole entry): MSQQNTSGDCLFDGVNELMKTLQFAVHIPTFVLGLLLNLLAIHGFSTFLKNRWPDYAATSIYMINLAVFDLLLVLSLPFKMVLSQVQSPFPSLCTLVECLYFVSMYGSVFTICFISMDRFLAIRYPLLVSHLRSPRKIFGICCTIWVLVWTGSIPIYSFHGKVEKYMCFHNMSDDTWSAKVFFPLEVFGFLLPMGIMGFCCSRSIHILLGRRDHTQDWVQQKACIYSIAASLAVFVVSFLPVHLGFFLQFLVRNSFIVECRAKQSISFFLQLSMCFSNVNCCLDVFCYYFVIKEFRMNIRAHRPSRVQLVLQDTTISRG
Sequence of Voltage-gated inwardly rectifying potassium channel KCNH2 (Q12809 whole entry): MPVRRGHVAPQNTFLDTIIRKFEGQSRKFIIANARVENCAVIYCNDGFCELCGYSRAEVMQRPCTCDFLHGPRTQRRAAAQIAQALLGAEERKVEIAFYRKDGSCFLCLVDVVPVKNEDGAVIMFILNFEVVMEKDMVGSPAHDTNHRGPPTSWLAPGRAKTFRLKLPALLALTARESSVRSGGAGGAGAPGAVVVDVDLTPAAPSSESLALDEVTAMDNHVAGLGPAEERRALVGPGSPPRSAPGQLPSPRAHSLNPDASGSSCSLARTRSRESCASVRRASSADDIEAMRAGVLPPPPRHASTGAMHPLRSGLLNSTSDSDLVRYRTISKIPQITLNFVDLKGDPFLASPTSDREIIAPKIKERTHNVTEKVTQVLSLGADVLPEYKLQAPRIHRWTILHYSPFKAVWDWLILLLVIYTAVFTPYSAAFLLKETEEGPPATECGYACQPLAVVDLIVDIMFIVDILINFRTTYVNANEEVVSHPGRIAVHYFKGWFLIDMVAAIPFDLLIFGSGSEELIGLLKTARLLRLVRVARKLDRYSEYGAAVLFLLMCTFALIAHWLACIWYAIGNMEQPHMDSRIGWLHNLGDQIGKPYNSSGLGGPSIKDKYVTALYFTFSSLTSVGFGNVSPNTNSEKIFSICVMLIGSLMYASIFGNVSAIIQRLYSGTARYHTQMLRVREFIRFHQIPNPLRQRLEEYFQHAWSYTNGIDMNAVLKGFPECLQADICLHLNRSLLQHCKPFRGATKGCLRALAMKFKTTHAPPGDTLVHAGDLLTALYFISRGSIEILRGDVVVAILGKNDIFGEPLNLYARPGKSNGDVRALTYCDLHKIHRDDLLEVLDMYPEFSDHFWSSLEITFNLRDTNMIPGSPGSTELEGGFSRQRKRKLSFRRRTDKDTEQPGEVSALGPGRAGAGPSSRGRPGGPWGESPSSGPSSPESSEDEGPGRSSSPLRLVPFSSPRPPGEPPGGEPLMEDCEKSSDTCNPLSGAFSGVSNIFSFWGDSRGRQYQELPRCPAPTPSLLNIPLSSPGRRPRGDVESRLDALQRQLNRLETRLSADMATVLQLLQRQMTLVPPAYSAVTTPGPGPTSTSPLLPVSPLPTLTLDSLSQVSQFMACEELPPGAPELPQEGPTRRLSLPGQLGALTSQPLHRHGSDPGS
Sequence of DNA damage-inducible transcript 3 protein (P35639 whole entry): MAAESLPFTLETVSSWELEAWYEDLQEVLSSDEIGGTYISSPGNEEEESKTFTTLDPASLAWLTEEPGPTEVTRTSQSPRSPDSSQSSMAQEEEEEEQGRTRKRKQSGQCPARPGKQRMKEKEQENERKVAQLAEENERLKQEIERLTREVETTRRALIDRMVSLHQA

## Oc1c(N=NC(S)=Nc2ccccc2F)c2ccccc2n1Cc1ccccc1F
[1]
  EC50: 1.26 µM (active)
[2]
  EC50: 0.44 µM (active)
[3]
  AC50: 302 µM (active)
HEK293
  AC50: 4.06 µM (active)

## CC(C)(C)C(=O)Cn1ncc(Br)c(Br)c1=O
[4]
  EC50: > 120 µM (not active)
[5]
  EC50: > 120 µM (not active)
H4
  EC50: > 120 µM (not active)
[1]
  EC50: 2.19 µM (active)
[6]
  EC50: 1.93 µM (active)
[7]
  Absolute IC50 (CHOP): 10 µM
[8]
  AC50: 3.92 µM (active)
A-375
  AC50: 32.8 µM (active)
[9]
  AC50: 9.51 µM (active)
[10]
  AC50: 67.2 µM (active)
[11]
  AC50: 13.9 µM (active)

## O=C(CSc1nc2ccccc2s1)N1c2ccccc2Sc2ccc(Cl)cc21
[12]
  EC50: 0.84 µM (active)
Cannabinoid receptor 2 [13]
  IC50: > 32 µM (inactive)
Cannabinoid receptor 2 [14]
  EC50: 0.0905 µM (active)
[15]
  EC50: 0.748 µM (active)
Cannabinoid receptor 1
  IC50: > 32 µM (inactive)
